From US20050272770A1, “Compositions and treatments for inhibiting kinase and/or HMG-CoA reductase” (priority 2004, published 2005) come the findings set out here.

Values joined by “and” are separate entries in the source; they are usually repeats but may differ in a detail not shown here. Identical values can stand only once. Counter-ions that a name gives are not always drawn. Like-named read-outs stand apart in the source and are kept apart here. A value given as a limit tells only on which side of the number the result lay.

The subject of test [1] is oxazolone-induced mouse ear swelling. The test can be described thus: Model for inhibition of topical inflammation (oxazolone-induced mouse ear swelling). The test is classed as in vivo, BALB/c male mice. The settings on record: for % Inh. of oxazolone-induced mouse ear swelling: topical, ear thickness 24 hours after challenge. As for the experimental part: Left ears were untreated. The thickness of both ears of each animal was measured with a Dyer model micrometer gauge 24 hours after oxazolone challenge, and the net increase in thickness of right ears versus left ears was calculated for each animal. Percent inhibition was calculated according to the formula: [(Iv−It)/Iv]×100, where Iv and It respectively refer to the average net increase in right ear thickness (mm) for vehicle and candidate compound treated mice.

In test [2] the test system is LPS-induced TNF-α release from human peripheral blood mononuclear cells. The test can be described thus: Whole cell LPS-stimulated TNF-α release assay. The test is classed as cell-based. As to the method:
The procedure as described in Welker et al., Int. Arch. Allergy and Immunol. 109:110-115 (1996) can be followed. Briefly, a candidate compound and/or vehicle can be preincubated with human peripheral blood mononuclear leukocytes (PBML, 5×10^5/ml) cells in AIM-V medium pH 7.4 for 2 hours. Lipopolysaccharide (LPS, 25 ng/ml) can be added to stimulate the cells, which can be incubated overnight at 37° C. TNF-α cytokine levels in the conditioned medium can then be quantitated using a sandwich ELISA kit.
(§1) Table III below summarizes the results of in vitro assays described above for HMG-CoA and/or MAP kinase inhibitory activity of specific pyrazole compounds.

In test [3] the target is T1, human recombinant p38α protein kinase (Homo sapiens, UniProt Q16539).
T1 construct: purchased UBI 14-251; host or cells: E. coli
T1 sequence (Q16539 whole entry): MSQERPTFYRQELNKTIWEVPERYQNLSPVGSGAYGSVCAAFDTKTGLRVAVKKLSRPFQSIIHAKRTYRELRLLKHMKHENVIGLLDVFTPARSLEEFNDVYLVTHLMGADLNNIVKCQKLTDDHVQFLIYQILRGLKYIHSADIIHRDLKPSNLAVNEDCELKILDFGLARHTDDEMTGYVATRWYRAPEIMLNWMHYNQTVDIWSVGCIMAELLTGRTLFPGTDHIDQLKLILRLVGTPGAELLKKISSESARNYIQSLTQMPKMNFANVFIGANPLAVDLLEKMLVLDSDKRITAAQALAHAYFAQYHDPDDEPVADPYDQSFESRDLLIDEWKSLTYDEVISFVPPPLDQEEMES
Put plainly: Human p38α MAP kinase inhibition assay (cell-free, phosphorylation of myelin basic protein). The test is classed as biochemical. As for the experimental part: In vitro cell-free p38α MAP kinase inhibition assays were conducted by the method as described in Clerk et al., FEBS Lett., 426:93-96 (1998) for a number of lactones in formulas I/IIa/IIb. Briefly, human recombinant p38α protein kinase expressed in E. coli (UBI #14-251) was used. Myelin basic protein (MBP, UBI #13-110) was employed as substrate, and microtiter plate wells were coated with MBP (0.01 mg/ml) overnight at 4° C. Candidate compound and/or vehicle was preincubated with 0.075 μg/mL enzyme in modified HEPES buffer pH 7.4 at 25° C. for 15 minutes. The reaction was initiated by addition of 100 μM ATP and allowed to proceed for another 60 minutes. The reaction was terminated by aspirating the solution. Phosphorylated MBP was detected by incubation with a mouse monoclonal IgG2a anti-phosphoMBP antibody. Bound anti-phosphoMBP antibody was quantitated by incubation with a HRP conjugated goat anti-mouse IgG.

Test [4] concerns the target T2, rat liver HMG-CoA reductase (Rattus norvegicus, UniProt P51639).
T2 construct: from tissue; host or cells: rat liver (per the results' head)
T2 sequence (P51639 1-887): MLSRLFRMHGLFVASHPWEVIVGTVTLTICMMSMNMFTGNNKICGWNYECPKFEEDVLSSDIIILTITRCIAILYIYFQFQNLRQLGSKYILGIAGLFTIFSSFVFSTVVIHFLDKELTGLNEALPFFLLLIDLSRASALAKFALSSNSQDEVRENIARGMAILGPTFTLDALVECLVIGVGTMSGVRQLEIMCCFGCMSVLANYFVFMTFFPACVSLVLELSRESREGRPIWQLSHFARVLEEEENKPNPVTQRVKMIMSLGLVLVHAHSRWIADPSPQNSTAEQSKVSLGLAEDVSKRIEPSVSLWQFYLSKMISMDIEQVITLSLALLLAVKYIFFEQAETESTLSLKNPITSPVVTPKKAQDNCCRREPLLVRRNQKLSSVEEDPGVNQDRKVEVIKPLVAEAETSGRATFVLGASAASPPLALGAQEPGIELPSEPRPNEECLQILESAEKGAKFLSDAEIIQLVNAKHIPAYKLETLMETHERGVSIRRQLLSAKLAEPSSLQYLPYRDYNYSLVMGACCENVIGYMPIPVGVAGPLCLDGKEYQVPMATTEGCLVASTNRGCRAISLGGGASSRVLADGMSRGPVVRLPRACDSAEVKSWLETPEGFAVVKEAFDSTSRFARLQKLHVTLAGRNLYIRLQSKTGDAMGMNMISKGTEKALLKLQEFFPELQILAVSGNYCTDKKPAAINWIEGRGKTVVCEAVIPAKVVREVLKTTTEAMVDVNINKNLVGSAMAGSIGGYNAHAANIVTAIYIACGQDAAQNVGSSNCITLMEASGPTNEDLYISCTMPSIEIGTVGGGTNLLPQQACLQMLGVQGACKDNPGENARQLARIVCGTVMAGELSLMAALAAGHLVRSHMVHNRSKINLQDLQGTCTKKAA
The test can be described thus: Cell-free HMG-CoA reductase assay. The settings on record: concentration required to inhibit rat liver HMG-CoA reductase by 50%; read-out: IC50 HMG-CoA R. Format: biochemical. As to the method:
An example of a cell-free HMG-CoA reductase assay involves radiometric procedures described in Shum et al., Ther. Drug Monit. 20:41-49 (1998), incorporated herein by reference. Briefly, about 150 μg/mL of HMG-CoA reductase can be incubated with a candidate compound, together with about 12 μM [^14C]HMG-CoA and about 200 μM NADPH in about 200 μL 0.2M phosphate buffer (pH about 7.2) for about 0.5 h at about 37° C. The [^14C]mevalonate that forms can be converted under acidic conditions to [^14C]mevalonolactone and separated from un-reacted substrate, for example, by ion-exchange chromatography, and then quantified, for example, by liquid scintillation counting.
as §1

The mark [5] stands for this setting: Homo sapiens, PBMC; read-out: IC50 Whole cell.
Setting [6] is: inhibition of phosphorylation of myelin basic protein by recombinant human p38α MAP kinase by 50%, Table III, read-out: IC50 p38α MAPK.
[7] abbreviates: in vitro, human p38α MAP kinase, Table I, read-out: IC50 p38α.
Where [8] appears, read: Homo sapiens, PBMC, read-out: IC50 Whole cell.

With `O=C([O-])C[C@H](O)C[C@H](O)/C=C/c1c(C2CC2)nc2ccccc2c1-c1ccc(F)cc1.O=C([O-])C[C@H](O)C[C@H](O)/C=C/c1c(C2CC2)nc2ccccc2c1-c1ccc(F)cc1.[Ca+2]` [Pitavastatin calcium], the “% Inh. of oxazolone-induced mouse ear swelling” value was determined as 9% in test [1] (dose 2 × 0.3 mg) and 60% in test [1] (dose 2 × 2 mg).
As usually defined, the IC50 is the concentration that gives 50% inhibition. Consider `O=C1C[C@H](O)C[C@@H](CCc2c(-c3ccccc3)nn(-c3ccnc(Nc4ccccc4)n3)c2-c2ccccc2)O1` [Example 11d, (4R,6R)-6-(2-(3,5-diphenyl-1-(2-(phenylamino)pyrimidin-4-yl)-1H-pyrazol-4-yl)ethyl)-4-hydroxy-tetrahydropyran-2-one], for which the IC50 in test [2] (setting [5]) came out at 11 µM; in test [3] (setting [6]), 8 µM.
As for `CC(C)c1nc(N(C)S(C)(=O)=O)nc(-c2ccc(F)cc2)c1/C=C/[C@@H](O)C[C@@H](O)CC(=O)O` [Rosuvastatin calcium], the half-maximal inhibitory concentration (IC50) in test [3] (setting [7]) is 92 µM.
Consider `O=C(O)C[C@H](O)C[C@H](O)/C=C/c1c(-c2ccccc2)nn(-c2ccnc(Nc3ccccc3)n2)c1-c1ccccc1` [Example 11a, (3R,5S,E)-7-(3,5-diphenyl-1-(2-(phenylamino)pyrimidin-4-yl)-1H-pyrazol-4-yl)-3,5-dihydroxyhept-6-enoic acid calcium salt], for which the IC50 in test [2] (setting [8]) worked out at 31 µM; in test [4], 0.033 µM; in test [3] (setting [6]), 11 µM.
For `COc1ccc2c(c1)c(CC(=O)O)c(C)n2C(=O)c1ccc(Cl)cc1` [Indomethacin], the “% Inh. of oxazolone-induced mouse ear swelling” value in test [1] (dose 2 × 0.3 mg) worked out at 44%.
The same measure, in the same setting: the same measure for `CC(C)c1nc(N(C)S(C)(=O)=O)nc(-c2ccc(F)cc2)c1/C=C/[C@@H](O)C[C@@H](O)CC(=O)O` [Rosuvastatin sodium]: 20%.
On to `CC(C)c1c(C(=O)Nc2ccccc2)c(-c2ccccc2)c(-c2ccc(F)cc2)n1CC[C@@H]1C[C@@H](O)CC(=O)O1` [Atorvastatin lactone], for which the IC50 in test [3] (setting [7]) was ~20 µM and 20 µM. Further, the “anti-inflammatory activity in ear swelling model, comparison in words” value in test [1] (observations on Table II) is given as “most potent anti-inflammatory activity in this assay”. Further, the “% Inh. of oxazolone-induced mouse ear swelling” value is 40% in test [1] (dose 2 × 0.3 mg); 50% and 58% and 40% in test [1] (dose 2 × 0.3 mg, listed as atorvastatin lactone); 58% in test [1] (dose 2 × 1 mg); 50% in test [1] (dose 2 × 2 mg).
With `COc1nccc(-n2nc(C(C)C)c(/C=C/[C@@H](O)C[C@@H](O)CC(=O)O)c2-c2cccc(C(F)(F)F)c2)n1` [Example 11e, (3R,5S,E)-3,5-dihydroxy-7-(3-isopropyl-1-(2-methoxypyrimidin-4-yl)-5-(3-(trifluoromethyl)phenyl)-1H-pyrazol-4-yl)hept-6-enoic acid calcium salt], the 50% inhibitory concentration (IC50) in test [2] (inhibition of LPS-induced TNF-α release from human peripheral blood mononuclear cells by 50%; read-out: IC50 Whole cell) amounted to 30 µM; in test [4], 0.002 µM; in test [3] (setting [6]), 36 µM.
For the compound Simvastatin sodium, the IC50 in test [3] (setting [7]) was greater than 100 µM.
As for `O=C(O)C[C@H](O)C[C@H](O)CCc1c(-c2ccccc2)nn(-c2ccnc(Nc3ccccc3)n2)c1-c1ccccc1` [Example 11c, (3R,5R)-7-(3,5-diphenyl-1-(2-(phenylamino)pyrimidin-4-yl)-1H-pyrazol-4-yl)-3,5-dihydroxyheptanoic acid], the half-inhibitory concentration (IC50) in test [2] (setting [5]) was 18 µM; in test [4] it was greater than 0.1 µM.
As to `CC[C@H](C)C(=O)O[C@H]1C[C@H](O)C=C2C=C[C@H](C)[C@H](CC[C@@H](O)C[C@@H](O)CC(=O)O)[C@H]21` [Pravastatin sodium], in test [1] (dose 2 × 0.3 mg), the “% Inh. of oxazolone-induced mouse ear swelling” value is recorded as 24%.
Take `COc1nccc(-n2nc(C(C)C)c(/C=C/[C@@H]3C[C@@H](O)CC(=O)O3)c2-c2cccc(C(F)(F)F)c2)n1` [Example 11f, (4R,6S,E)-4-hydroxy-6-(2-(3-isopropyl-1-(2-methoxypyrimidin-4-yl)-5-(3-(trifluoromethyl)phenyl)-1H-pyrazol-4-yl)vinyl)-tetrahydropyran-2-one]: the IC50 in test [2] (setting [5]) was 16 µM; in test [3] (setting [6]), greater than 100 µM.
Consider `O=C(O)C[C@H](O)C[C@H](O)/C=C/c1cnn(-c2ccnc(Nc3ccccc3)n2)c1-c1cccc(C(F)(F)F)c1` [Example 11g, (3R,5S,E)-3,5-dihydroxy-7-(1-(2-(phenylamino)pyrimidin-4-yl)-5-(3-(trifluoromethyl)phenyl)-1H-pyrazol-4-yl)hept-6-enoic acid calcium salt], for which the IC50 in test [2] (setting [8]) was 52 µM; in test [4], greater than 0.1 µM; in test [3] (setting [6]), 14 µM.
Turning to `CC(C)c1c(C(=O)Nc2ccccc2)c(-c2ccccc2)c(-c2ccc(F)cc2)n1CC[C@@H](O)C[C@@H](O)CC(=O)O` [Atorvastatin sodium], the “% Inh. of oxazolone-induced mouse ear swelling” value came to 9% in test [1] (dose 2 × 0.3 mg), 31% in test [1] (dose 2 × 1 mg) and 63% in test [1] (dose 2 × 2 mg).
Turning to `CCC(C)c1nn(-c2ccnc(Nc3ccccc3)c2)c(-c2ccc(F)cc2)c1/C=C/[C@@H]1C[C@@H](O)CC(=O)O1` (some centres unmarked) [Example 10b], the results for the 50% inhibitory concentration (IC50) in test [2] (setting [5]) and in test [3] (setting [6]) were 14 µM and 6 µM, respectively.
Take `CC(C)c1c(C(=O)Nc2ccccc2)c(-c2ccccc2)c(-c2ccc(F)cc2)n1CC[C@@H](O)C[C@@H](O)CC(=O)O` [Atorvastatin calcium]: the 50% inhibitory concentration (IC50) in test [3] (setting [7]) is greater than 100 µM.
`O=C1C[C@H](O)C[C@@H](/C=C/c2c(-c3ccccc3)nn(-c3ccnc(Nc4ccccc4)n3)c2-c2ccccc2)O1` [Example 11b, (4R,6S,E)-6-(2-(3,5-diphenyl-1-(2-(phenylamino)pyrimidin-4-yl)-1H-pyrazol-4-yl)vinyl)-4-hydroxy-tetrahydropyran-2-one]: the results for the half-maximal inhibitory concentration (IC50) in test [2] (setting [5]) and in test [3] (setting [6]) were 21 µM and 6 µM, respectively.
Take `CC(C)n1c(/C=C/C(O)CC(O)CC(=O)O)c(-c2ccc(F)cc2)c2ccccc21` (centres unmarked) [Fluvastatin sodium]: the half-inhibitory concentration (IC50) in test [3] (setting [7]) was ~34 µM and 34 µM. Besides, the “% Inh. of oxazolone-induced mouse ear swelling” value in test [1] (dose 2 × 0.3 mg) worked out at 28%.
